PubChem BioAssay AID1508612

Test: passive permeability, PAMPA, ADME assay (AID 1508612)
Settings: pH 7.4, 30.0 min, 50.0 µM
With `COc1ccc(NC(=O)c2c(C)c(C(C)=O)c(C)n2C)cc1S(=O)(=O)Nc1ccc(Br)cc1` the Papp was < 10 nm/s.
In the case of `Cn1cc(Br)c(C2N=C(Nc3nc4ccccc4o3)NC3=C2C(=O)CCC3)n1` (stereo not drawn), the Papp was > 10000 nm/s.
With `NC(CO)(CO)CCc1ccc(Sc2cccc(OCc3ccccc3)c2)cc1Cl` the Papp was 2100 nm/s.
For `Cc1ccc(S(=O)(=O)Nc2cnccc2C(=O)Nc2nc(-c3ccc(Cl)cc3)cs2)cc1`, the Papp was 382 nm/s.
In the case of `COc1ccc(C2Nc3ccccc3C(=O)N2Cc2ccco2)cc1COc1ccc(NC(C)=O)cc1` (stereo not drawn), the Papp was 3290 nm/s.
Work on `COc1cccc(CNc2ccc(S(=O)(=O)Nc3ncccn3)cc2)c1O` yielded a Papp of 315 nm/s.
Work on `CCc1ccc(NC(=O)c2cc3ncccn3n2)cc1` yielded a Papp of 5250 nm/s.
`Cc1cn2nc(-c3nc(C4CCCN(C(=O)c5ccccc5)C4)no3)cc2c(=O)[nH]1` (stereo not drawn) showed a Papp of 1360 nm/s.
`O=S(=O)(Nc1nc2n(n1)C(c1ccccc1)C=C(c1ccc(Cl)cc1)N2)c1ccccc1` (stereo not drawn) showed a Papp of 90.9 nm/s.
For `CNC1(c2ccccc2Cl)CCCCC1=O` (stereo not drawn), the Papp was > 10000 nm/s.
For `COc1ccc(-n2cnc3cc(C(=O)N4CCCCC4)ccc32)cc1`, the Papp was 6240 nm/s.
`O=C(O)c1ccccc1-c1ccc(/C=c2\sc3nc4cc(Br)cnc4n3c2=O)o1` gave a Papp of 123 nm/s.
`CCc1ccc2oc(NC3=NC(c4[nH]ncc4Cl)C4=C(CCCC4=O)N3)nc2c1` (stereo not drawn) showed a Papp of 9160 nm/s.
In the case of `N#Cc1ccc(C(=O)Nc2ccc(Cl)c(-c3nc4cc(Cl)ccc4o3)c2)c(F)c1`, the Papp was < 10 nm/s.
Work on `NC(=O)C1CCN(c2nnc(-c3ccc4c(c3)OCCCO4)s2)CC1` yielded a Papp of 838 nm/s.
In the case of `CCN(CC)C(=O)c1ccc(O)c(OC)c1`, the Papp was 4820 nm/s.
For `Cc1onc(-c2ccccc2)c1C(=O)Nc1nnc(COc2ccc(Cl)cc2)s1`, the Papp was 2470 nm/s.
In the case of `Cc1cccc(C)c1C(=O)Nc1cccc([S+](=O)([O-])N2CCCCCC2)c1`, the Papp was 8270 nm/s.
Work on `O=C(c1cnccn1)N1CCC2(CCCN(C(c3ccccc3)c3ccccc3)C2)CC1` yielded a Papp of 30 nm/s.
Compound `C[C@@]1(c2ncncc2F)NC(=O)c2cc(-c3cn[nH]c3)ccc21` has a Papp of 521 nm/s.
For `FC(F)(F)c1ccc(N2CCN(C(=S)Nc3ccccn3)CC2)cc1`, the Papp was 8150 nm/s.
In the case of `C[C@@]12O[C@@H](C[C@]1(O)CO)n1c3ccccc3c3c4c(c5c6ccccc6n2c5c31)CNC4=O`, the Papp was 70.6 nm/s.
For `O=C(Nc1nc2cc(C(F)(F)F)cc(NC3CC3)n2n1)c1cccnc1`, the Papp was 1970 nm/s.
With `Nc1nc(N)c2cc(Sc3ccc4ccccc4c3)ccc2n1` the Papp was 4610 nm/s.
`CCOc1ccc(CNC(=O)CCCn2nc(C)c3c(C)n(-c4ccc(C)cc4)nc3c2=O)cc1` showed a Papp of 8430 nm/s.
`COc1cc2nccc(Oc3ccc(NC(=O)C4(C(=O)Nc5ccc(F)cc5)CC4)cc3)c2cc1OC` showed a Papp of 5070 nm/s.
In the case of `CCOc1ccc(CN2C(=O)c3ccccc3Sc3ccc(C(=O)NC4CCC(C)CC4)cc32)cc1` (stereo not drawn), the Papp was < 10 nm/s.
With `COc1ccc(-c2ccc3nc(-c4ccc(SC)cc4)oc3c2)c(OC)c1OC` the Papp was < 10 nm/s.
In the case of `COc1ccc2[nH]c3c(c2c1)CCNC31CCN(S(=O)(=O)c2c(C)noc2C)CC1`, the Papp was 790 nm/s.
In the case of `Cc1ccc(-n2c(C)cc(C3=NNC(=NC4CC4)SC3)c2C)cc1C`, the Papp was > 10000 nm/s.
In the case of `CCOC(=O)C1CCN(c2nc(-c3ccc(Br)cc3)cs2)CC1`, the Papp was 1200 nm/s.
With `CCOc1ccc(CCNC(=O)c2cc3ccccc3o2)cc1OCC` the Papp was > 10000 nm/s.
Compound `COc1cc(Cl)c(C)cc1NC(=O)CSc1ncc(S(=O)(=O)c2ccc(C(C)(C)C)cc2)c(=O)[nH]1` has a Papp of 162 nm/s.
`O=[N+]([O-])c1ccc(/C=N/n2c(CO)nc3ccccc32)s1` gave a Papp of 2690 nm/s.
With `Oc1ccc(CNc2ccccc2Br)c2cccnc12` the Papp was < 10 nm/s.
`Cn1cnc2c(F)c(Nc3ccc(Br)cc3Cl)c(C(=O)NOCCO)cc21` showed a Papp of 1310 nm/s.
In the case of `COc1cc(=O)n2c(c1C(=O)N(C)Cc1cscn1)CCN(C(=O)c1ccc(C)cc1C)CC2`, the Papp was 99.1 nm/s.
With `Cc1noc(C)c1-c1csc(N2CCC(C(N)=O)CC2)n1` the Papp was 589 nm/s.
`Cc1cc(-c2cc3c(nc2-c2ccccc2)nc(C(=O)NCCN(C)C)n3C)ccn1` gave a Papp of 3200 nm/s.
In the case of `N#Cc1cnccc1-c1nc(Nc2ccc(F)c(F)c2)c2ccccc2n1`, the Papp was 2690 nm/s.
With `c1ccc(CNc2nc(NCc3ccccc3)c3ccccc3n2)cc1` the Papp was 2530 nm/s.
With `Cn1nnnc1Sc1ncnc2sccc12` the Papp was 676 nm/s.
In the case of `Cc1ccccc1S(=O)(=O)Nc1cnccc1C(=O)Nc1nc(-c2ccccc2)cs1`, the Papp was > 10000 nm/s.
With `Cc1ccc(CNc2ccccc2C(=O)Nc2nc(-c3ccccc3)cs2)cc1` the Papp was 264 nm/s.
`O=C1NC(=S)NC(=O)C1=Cc1cccn1-c1ccc(O)cc1` gave a Papp of 441 nm/s.
In the case of `O=C(Cc1c[nH]c2ncc(-c3ccc(Cl)cc3)cc12)NCc1cccnc1`, the Papp was > 10000 nm/s.
`COCCNC(=O)[C@H]1C[C@H](Oc2ccccc2)CN1Cc1ccc2[nH]ccc2c1` showed a Papp of 9610 nm/s.
In the case of `CCc1cccc(NS(=O)(=O)c2ccc3c(c2)CC(C)N3C(=O)C2CC2)c1` (stereo not drawn), the Papp was > 10000 nm/s.
With `Cc1cnc(-c2ccccc2C(C)C)nc1NCc1ccc(-n2ccnn2)cc1` the Papp was > 10000 nm/s.
In the case of `CC(C)c1ccccc1-c1ncc(F)c(NCc2ccc(-n3ccnn3)cc2)n1`, the Papp was > 10000 nm/s.
`COc1ccc(-c2csc(NC(=O)c3ccccc3NS(=O)(=O)c3ccc(C)cc3)n2)cc1` showed a Papp of 77 nm/s.
Work on `CC(=O)N1CCN(c2ccc(OCc3nn(C)c(C)c3-c3cccc4c(CCCOc5cc(C)c(Cl)c(C)c5)c(C(=O)O)n(Cc5cccnc5)c34)cc2)CC1` yielded a Papp of 3700 nm/s.
`Cc1nsc(N)c1C(=O)N(C)CCOc1ccccc1Cl` gave a Papp of 3890 nm/s.
In the case of `COc1cccc(N2CCN(c3ncc4c(n3)CCN(Cc3ccc(Br)cc3)C4)CC2)c1`, the Papp was 250 nm/s.
Work on `O=C1CCCC2=C1C(c1ccncc1Cl)N=C(Nc1nc3ccccc3o1)N2` (stereo not drawn) yielded a Papp of 8970 nm/s.
Work on `NC(=O)C1CCN(c2ncc(-c3ccc4c(c3)OC(F)(F)O4)s2)CC1` yielded a Papp of 4380 nm/s.
For `CCn1nnnc1Sc1ncnc2scc(-c3ccc(C)cc3)c12`, the Papp was > 10000 nm/s.
In the case of `C[C@@H]1C(=O)O[C@H]2[C@H]1CC[C@@]1(C)Cc3sc(NS(=O)(=O)Cc4ccccc4)nc3[C@@H](C)[C@H]21`, the Papp was > 10000 nm/s.
In the case of `Clc1ccccc1-c1nccc(-n2ccnc2)n1`, the Papp was > 10000 nm/s.
For `O=C(NCCCCc1ccccc1)C1CCN(c2nc(-c3ccc(Br)cc3)cs2)CC1`, the Papp was 53 nm/s.
Work on `COc1cc(Cl)c(C)cc1NS(=O)(=O)c1c(C)nc2sccn2c1=O` yielded a Papp of 7870 nm/s.
In the case of `N=c1c2ccccc2nnn1-c1ccc(C(F)(F)F)cc1`, the Papp was 1480 nm/s.
For `CCc1ccc(CNc2ccc3c(c2)ncn3C(C)(C)C)cc1`, the Papp was > 10000 nm/s.
`Cc1ccc(-c2cc(C(=O)Nc3ccc(C#N)cc3)c3ccccc3n2)cc1C` showed a Papp of 2850 nm/s.
For `COc1cccc(CNc2ccc(S(=O)(=O)Nc3cccc4ccncc34)cc2)c1O`, the Papp was > 10000 nm/s.
Compound `CCc1ccccc1Nc1ncnc2c1cnn2-c1ccc(Cl)cc1` has a Papp of 2530 nm/s.
Compound `COc1ccc2[nH]c(=O)c(-c3noc(-c4ccc(F)cc4)n3)cc2c1` has a Papp of 630 nm/s.
`Cc1ccc(-c2cc(C(=O)NCc3ccc(S(N)(=O)=O)cc3)c3ccccc3n2)cc1C` showed a Papp of 710 nm/s.
`COC(=O)Nc1nc2ccc(SC(C)C)cc2[nH]1` gave a Papp of 4330 nm/s.
For `Cn1cc(Cl)c(C2N=C(Nc3nc4ccccc4o3)NC3=C2C(=O)CCC3)n1` (stereo not drawn), the Papp was 6330 nm/s.
In the case of `Cc1ccc(OCCn2c(CCNC(=O)C3CCCCC3)nc3ccccc32)cc1`, the Papp was > 10000 nm/s.
`Cn1cc(-c2nc(Nc3ccc(F)c(F)c3)c3ccccc3n2)cn1` gave a Papp of 3150 nm/s.
In the case of `O=[S+]([O-])(Nc1nccs1)c1ccc(NCc2cc(F)cc(Cl)c2O)cc1`, the Papp was 182 nm/s.
In the case of `CCOc1cc(CCNC(=O)c2cc3sccc3n2Cc2ccccc2)cc(F)c1OCC`, the Papp was < 10 nm/s.
With `Cc1ccc(S(=O)(=O)Nc2cnccc2C(=O)Nc2nc(-c3cnn(C)c3)cs2)cc1` the Papp was 549 nm/s.
`O=c1ncn2nc(Sc3ccc(F)cc3F)ccc2c1-c1c(Cl)cccc1Cl` gave a Papp of 8660 nm/s.
For `Cc1ccc2nc(-c3ccccn3)c(Nc3ccccc3C)n2c1`, the Papp was > 10000 nm/s.
For `O=C(c1ccccc1)N1CCN(c2nc(-c3ccc(Br)cc3)cs2)CC1`, the Papp was 7430 nm/s.
In the case of `Fc1ccc(-c2ccc(Nc3nc(-c4ccncc4)nc4ccccc34)cc2F)cc1`, the Papp was 936 nm/s.
In the case of `Cc1cccc(-c2noc([C@@H]3Cc4nc[nH]c4CN3)n2)c1`, the Papp was 3430 nm/s.
For `CC(C)Oc1ccc(-c2csc(N3CCC(C(N)=O)CC3)n2)cc1`, the Papp was > 10000 nm/s.
With `O=S(=O)(c1ccccc1)N1CCN(c2nc(-c3ccc(Br)cc3)cs2)CC1` the Papp was 2050 nm/s.
Work on `CNc1sc(-c2cccc3ccccc23)nc1C#N` yielded a Papp of 7160 nm/s.
Work on `CC1=C(C(=O)Nc2ccc(Cl)cc2)C(c2ccccc2C)n2ncc(C(=O)Nc3ccc(C)cc3)c2N1` (stereo not drawn) yielded a Papp of 101 nm/s.
With `COc1cccc(-n2nc(C(=O)O)cc2-c2ccc(C3CCCCC3)c(Cl)c2)c1` the Papp was > 10000 nm/s.
Work on `Cc1ccc(S(=O)(=O)Nc2cc(Cl)c(Cl)cc2C(=O)Nc2nc(-c3ccccc3)cs2)cc1` yielded a Papp of 50 nm/s.
For `NC(=O)COc1cccc(C2CC(=O)Nc3nc(N4CCCCC4)sc32)c1` (stereo not drawn), the Papp was 158 nm/s.
In the case of `O=[N+]([O-])c1cccc(CSc2nc3ncc(Br)cc3[nH]2)c1`, the Papp was 5500 nm/s.
Work on `Cc1ccc(-c2cc(C(=O)Nc3cccc(S(N)(=O)=O)c3)c3ccccc3n2)cc1C` yielded a Papp of 118 nm/s.
`O=C(NC1CCCN(c2cc(-c3ccc(F)cc3)[nH]n2)C1)c1ccc2ncccc2c1` (stereo not drawn) showed a Papp of 618 nm/s.
With `c1ccc(C2=Nn3c(nnc3-c3ccncc3)SC2)cc1` the Papp was 1950 nm/s.
`CC1=C[C@@H](CN2C(=O)C(C)=C(C)C2=O)[C@H](C(C)C)C[C@H]1Cc1nc2c(C)cccc2[nH]1` gave a Papp of 5850 nm/s.
Compound `O=C(CCc1ccccc1)Nc1ccc(S(=O)(=O)Nc2nccs2)cc1` has a Papp of 93.4 nm/s.
Work on `O=C1CCCC2=C1C1(CCS(=O)(=O)C1)N=C(Nc1nc3ccccc3o1)N2` (stereo not drawn) yielded a Papp of 1760 nm/s.
For `Cc1cccc(CN2CCN(c3ccccn3)CC2)c1`, the Papp was > 10000 nm/s.
`Cc1cnc(N2CCC(C(N)=O)CC2)nc1-c1cccc(N(C)C)c1` showed a Papp of 6660 nm/s.
For `Cc1cccc(-c2[nH]c(C(C)(C)C)nc2-c2ccc3nccnc3c2)n1`, the Papp was 5120 nm/s.
For `CC(=O)Nc1ccc(S(=O)(=O)Nc2nccs2)cc1`, the Papp was < 10 nm/s.
Work on `Cc1nc2ccc(C(=O)N3CCC4(CC3)CC(=O)c3c(cnn3C(C)C)C4)cc2[nH]1` yielded a Papp of 165 nm/s.
`COc1cccc(CNc2ccc(S(=O)(=O)Nc3nccs3)cc2)c1N` gave a Papp of 288 nm/s.
In the case of `O=C(Cc1ccc(Cl)c(Cl)c1)Nc1ccc([S+](=O)([O-])Nc2ccccn2)cc1`, the Papp was 6510 nm/s.
In the case of `COc1ccc(CNc2ccc(S(=O)(=O)Nc3nccs3)cc2)cc1O`, the Papp was 193 nm/s.
`COC(=O)CNC(=O)c1nc(-c2ccc([S+](C)(=O)[O-])cc2)c2cnccn12` showed a Papp of 96.7 nm/s.
In the case of `N=c1c2c(ncn1-c1ccccc1)Oc1ccc3ccccc3c1C2c1ccc2c(c1)CCO2` (stereo not drawn), the Papp was 2820 nm/s.
`Cc1ccnc(NC(=S)N2CCN(c3ccc(N)cc3)CC2)c1` gave a Papp of 7170 nm/s.
For `CCOC(=O)c1ccc(NC2CCCCC2)c(N)c1`, the Papp was > 10000 nm/s.
For `Cc1ccc(S(=O)(=O)Nc2ccccc2C(=O)Nc2ccc(-c3ccccc3)nc2)cc1`, the Papp was 543 nm/s.
Compound `CC(C)(C)c1ccc(S(=O)(=O)N2CCC(c3ccncc3)CC2)cc1` has a Papp of 3200 nm/s.
